We go through seven compounds from US12398142B2, “Abelson non-tyrosine kinase compounds for the treatment of neurodegenerative diseases” (Emory University, priority 2019, dated 2025).

The structures appear in SMILES notation. Like-named read-outs stand apart in the source and are kept apart here. Bounds are passed on as bounds.

One data set has as its target CYP3A4 (Homo sapiens (Human), UniProt P08684). Kind of data set: CYP3A4 IC50. The format is in vitro ADME. The settings on record: unit given as mM.
The target in another data set is CYP2D6 (Homo sapiens (Human), UniProt P10635). Kind of data set: CYP2D6 IC50. The format is in vitro ADME. To be noted: unit given as mM.
CYP2D6, sequence (P10635 whole entry, species assumed): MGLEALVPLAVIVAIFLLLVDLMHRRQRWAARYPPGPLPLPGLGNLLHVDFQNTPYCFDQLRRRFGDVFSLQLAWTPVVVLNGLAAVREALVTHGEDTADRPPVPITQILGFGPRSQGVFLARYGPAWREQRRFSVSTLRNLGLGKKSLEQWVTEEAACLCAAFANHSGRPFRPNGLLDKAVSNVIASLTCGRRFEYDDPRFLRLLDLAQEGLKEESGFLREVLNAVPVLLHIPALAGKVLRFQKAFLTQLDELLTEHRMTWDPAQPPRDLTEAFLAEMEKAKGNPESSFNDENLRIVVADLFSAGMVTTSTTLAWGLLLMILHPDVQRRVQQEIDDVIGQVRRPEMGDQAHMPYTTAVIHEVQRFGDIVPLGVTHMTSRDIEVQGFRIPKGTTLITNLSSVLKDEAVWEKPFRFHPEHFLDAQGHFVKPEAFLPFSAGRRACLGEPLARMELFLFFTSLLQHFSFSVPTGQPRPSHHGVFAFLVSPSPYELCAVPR
The target in another data set is hERG (Homo sapiens (Human), UniProt Q12809). The data set is described as follows: in vitro. The settings on record: for SI / selectivity ratio at 4 h: human, pH 7.5. The method, then: Compounds were prepared as 10 mM DMSO stock and stored at −80° C.
hERG, sequence (Q12809 whole entry): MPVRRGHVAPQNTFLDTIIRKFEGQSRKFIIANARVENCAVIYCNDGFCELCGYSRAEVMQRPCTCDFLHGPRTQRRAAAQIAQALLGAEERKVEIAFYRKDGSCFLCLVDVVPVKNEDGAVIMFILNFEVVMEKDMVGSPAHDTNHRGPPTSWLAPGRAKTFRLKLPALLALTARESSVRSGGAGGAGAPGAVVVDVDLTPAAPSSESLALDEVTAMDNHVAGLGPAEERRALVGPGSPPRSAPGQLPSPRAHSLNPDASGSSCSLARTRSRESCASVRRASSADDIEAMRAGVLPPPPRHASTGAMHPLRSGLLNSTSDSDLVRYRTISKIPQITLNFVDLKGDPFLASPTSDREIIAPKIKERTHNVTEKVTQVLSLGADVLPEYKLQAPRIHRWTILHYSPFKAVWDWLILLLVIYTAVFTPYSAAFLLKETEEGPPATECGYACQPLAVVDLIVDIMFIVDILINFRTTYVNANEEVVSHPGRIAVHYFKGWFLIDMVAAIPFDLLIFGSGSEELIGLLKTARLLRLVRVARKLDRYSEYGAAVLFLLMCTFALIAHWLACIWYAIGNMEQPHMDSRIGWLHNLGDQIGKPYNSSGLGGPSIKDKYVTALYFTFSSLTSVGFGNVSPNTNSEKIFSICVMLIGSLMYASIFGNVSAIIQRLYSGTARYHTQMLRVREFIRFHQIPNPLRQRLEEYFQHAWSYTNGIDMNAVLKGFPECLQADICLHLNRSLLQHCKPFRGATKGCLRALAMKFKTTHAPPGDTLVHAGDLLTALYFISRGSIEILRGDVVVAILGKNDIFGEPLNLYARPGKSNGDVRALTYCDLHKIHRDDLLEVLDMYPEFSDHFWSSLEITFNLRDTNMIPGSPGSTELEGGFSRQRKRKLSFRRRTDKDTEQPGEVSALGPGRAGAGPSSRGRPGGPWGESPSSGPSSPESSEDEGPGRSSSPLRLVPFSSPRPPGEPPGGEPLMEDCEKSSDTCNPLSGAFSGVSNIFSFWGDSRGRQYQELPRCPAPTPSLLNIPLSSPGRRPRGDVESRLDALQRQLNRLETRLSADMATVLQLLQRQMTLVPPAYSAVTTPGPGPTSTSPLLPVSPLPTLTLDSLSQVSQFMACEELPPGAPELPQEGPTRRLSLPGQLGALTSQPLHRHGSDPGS
Assay Format: The assay is based on the competition of fluorescently labeled Tracer binding to the membrane preparation containing hERG.
Assay conditions: 1 nM Predictor™ hERG Tracer Red; 1X Predictor™ hERG Membrane
Assay Procedure: Compounds in DMSO were added into the Membrane mixture by using Acoustic Technology. Tracer was added, and gentled mixed in the dark. FP was measured after 4 hours incubation at room temperature and mP calculated.

The next data set concerns the target ABL1 (Homo sapiens (Human), UniProt P00519). The data set is described as follows: Kinase profiling, ABL1 10-dose IC50. The format is biochemical.
[1] abbreviates: 10 μM ATP, second run (CD-1-051, ZD-3-167, CD-1-067), read-out: Compound IC50 ABL1 Data 1.
Setting [2] is: 10 μM ATP, second run, read-out: Compound IC50 ABL1 Data 2.
Where [3] appears, read: summary table, read-out: Abl1 IC50.
[4] abbreviates: IC50 of Tracer Binding hERG AVERAGE, first run, average of duplicates.
Where [5] appears, read: IC50 of Tracer Binding hERG Data 1, first run, 4 hours incubation.
Where [6] appears, read: IC50 of Tracer Binding hERG Data 2, first run.
[7] abbreviates: hERG IC50, summary table, unit given as mM.
Where [8] appears, read: 10 μM ATP, first run (TK3-141, TK3-144, CD-1-002), read-out: Compound IC50 ABL1 Data 1.
Where [9] appears, read: 10 μM ATP, first run, average of duplicates, read-out: Compound IC50 ABL1 Avg.
The mark [10] stands for this setting: 10 μM ATP, first run, read-out: Compound IC50 ABL1 Data 2.
Where [11] appears, read: Average hERG (IC50), second run, average.
[12] abbreviates: IC50 of Tracer Binding hERG Data 1, second run.
The mark [13] stands for this setting: IC50 of Tracer Binding hERG Data 2, second run.
Where [14] appears, read: 10 μM ATP, second run, average of duplicates, read-out: Compound IC50 ABL1 Avg.

CYP3A4, sequence (P08684 whole entry, species assumed): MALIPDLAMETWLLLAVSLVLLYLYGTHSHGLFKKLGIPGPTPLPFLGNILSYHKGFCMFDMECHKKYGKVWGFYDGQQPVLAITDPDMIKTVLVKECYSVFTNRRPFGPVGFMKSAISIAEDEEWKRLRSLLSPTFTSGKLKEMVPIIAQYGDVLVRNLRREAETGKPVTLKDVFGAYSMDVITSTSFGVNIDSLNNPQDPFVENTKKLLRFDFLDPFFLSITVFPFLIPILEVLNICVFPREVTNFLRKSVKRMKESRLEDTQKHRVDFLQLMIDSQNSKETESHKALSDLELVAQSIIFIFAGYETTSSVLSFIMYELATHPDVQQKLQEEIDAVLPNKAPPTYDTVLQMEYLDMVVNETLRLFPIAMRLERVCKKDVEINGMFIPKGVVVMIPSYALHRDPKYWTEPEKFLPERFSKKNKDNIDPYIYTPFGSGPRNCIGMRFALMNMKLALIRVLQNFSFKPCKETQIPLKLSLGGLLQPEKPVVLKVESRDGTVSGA
ABL1, sequence (P00519 whole entry): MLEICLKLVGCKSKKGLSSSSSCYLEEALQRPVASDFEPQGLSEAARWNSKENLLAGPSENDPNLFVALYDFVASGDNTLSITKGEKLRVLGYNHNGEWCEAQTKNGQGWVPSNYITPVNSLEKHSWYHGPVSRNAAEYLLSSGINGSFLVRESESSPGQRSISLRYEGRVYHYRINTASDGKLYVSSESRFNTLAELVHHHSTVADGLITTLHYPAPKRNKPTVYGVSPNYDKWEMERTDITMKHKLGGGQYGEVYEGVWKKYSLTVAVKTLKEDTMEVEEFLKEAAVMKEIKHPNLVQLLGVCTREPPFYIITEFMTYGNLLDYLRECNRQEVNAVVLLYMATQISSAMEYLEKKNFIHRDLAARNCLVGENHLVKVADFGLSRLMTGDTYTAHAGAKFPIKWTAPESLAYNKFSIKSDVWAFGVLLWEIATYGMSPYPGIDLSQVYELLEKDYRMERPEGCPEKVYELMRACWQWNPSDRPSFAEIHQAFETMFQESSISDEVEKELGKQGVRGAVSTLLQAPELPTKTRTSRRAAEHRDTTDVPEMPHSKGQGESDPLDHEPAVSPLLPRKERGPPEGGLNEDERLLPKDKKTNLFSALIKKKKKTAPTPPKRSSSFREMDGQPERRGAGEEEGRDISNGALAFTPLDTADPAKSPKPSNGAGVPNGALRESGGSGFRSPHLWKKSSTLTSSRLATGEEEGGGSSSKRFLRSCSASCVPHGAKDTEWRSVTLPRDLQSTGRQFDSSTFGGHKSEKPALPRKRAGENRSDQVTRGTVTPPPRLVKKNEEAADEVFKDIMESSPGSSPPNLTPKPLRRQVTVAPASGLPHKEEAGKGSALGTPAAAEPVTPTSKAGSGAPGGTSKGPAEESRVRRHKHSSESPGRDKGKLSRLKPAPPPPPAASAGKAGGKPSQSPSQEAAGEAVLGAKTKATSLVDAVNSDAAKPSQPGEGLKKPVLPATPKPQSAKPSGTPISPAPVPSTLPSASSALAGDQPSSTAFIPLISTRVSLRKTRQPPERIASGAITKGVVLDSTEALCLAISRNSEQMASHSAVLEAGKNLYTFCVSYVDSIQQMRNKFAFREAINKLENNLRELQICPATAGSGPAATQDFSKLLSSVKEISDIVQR

In general, IC50 refers to the midpoint of a concentration-inhibition curve. In the case of `Cc1cn(-c2cc(NC(=O)c3ccc(C)c(Nc4nccc(-c5cccnc5)n4)c3)cc(C(F)(F)F)c2)cn1` [Nilotinib, reference compound], the values for the IC50 against CYP3A4 and against CYP2D6 were 0.00058 mM and more than 0.1 mM, respectively.

In the case of `Cc1ccc(C(=O)Nc2ccc(CN3Cc4ccc(O)cc4C3)c(Cl)c2)cc1C#Cc1cnc2cccnn12` [CD-1-067, N-(3-chloro-4-((5-hydroxyisoindolin-2-yl)methyl)phenyl)-3-(imidazo [1,2-b]pyridazin-3-ylethynyl)-4-methylbenzamide], the IC50 at CYP3A4 was 0.00461 mM; at ABL1 (setting [1]), more than 30 nM; at ABL1 (setting [2]), more than 30 nM; on ABL1 (setting [3]), more than 30 nM; against CYP2D6, 0.00339 mM. The SI at hERG was less than 26.

`Cc1ccc(C(=O)Nc2ccc(CN3CCN(CCO)CC3)c(C3CC3)c2)cc1C#Cc1cnc2cccnn12` [TK3-144, N-[3-cyclopropyl-4-[[4-(2-hydroxyethyl)piperazin-1-yl]methyl]phenyl]-3-(2-imidazo[1,2-b]pyridazin-3-ylethynyl)-4-methyl-benzamide]: the IC50 against CYP3A4 is 0.0118 mM; at hERG (setting [4]), 103 nM; on hERG (setting [5]) it was 105 nM; at hERG (setting [6]), 102 nM; on hERG (setting [7]), 103 nM; at ABL1 (setting [8]), 0.413 nM. Further, the IC50 is 0.392 nM at ABL1 (setting [9]), 0.371 nM at ABL1 (setting [10]), 0.39 nM at ABL1 (setting [3]) and 0.00199 mM against CYP2D6. In addition, the SI at hERG was determined as 263.

With `Cc1ccc(C(=O)Nc2ccc(CN3Cc4cn[nH]c4C3)c(Cl)c2)cc1C#Cc1cnc2cccnn12` [ZD-3-167, N-[3-chloro-4-(4,6-dihydro-1H-pyrrolo[3,4-c]pyrazol-5-ylmethyl)phenyl]-3-(2-imidazo[1,2-b]pyridazin-3-ylethynyl)-4-methyl-benzamide], the IC50 at CYP3A4 is 0.00728 mM; on hERG (setting [11]) it was 10200 nM; on hERG (setting [12]), more than 10000 nM; at hERG (setting [13]) it was more than 10000 nM; on hERG (setting [7]) it was more than 10000 nM; at ABL1 (setting [1]), 11.1 nM. The IC50 on ABL1 (setting [14]) is 10.6 nM; on ABL1 (setting [2]), 10.1 nM; at ABL1 (setting [3]) it was 10.6 nM; at CYP2D6, 0.0137 mM. At hERG, the SI is more than 943. The selectivity ratio at 4 h on hERG worked out at 963.

On to `Cc1ccc(C(=O)Nc2ccc(CN3CCN(CCO)CC3)c(Cl)c2)cc1C#Cc1cnc2cccnn12` [TK3-141, N-[3-chloro-4-[[4-(2-hydroxyethyl)piperazin-1-yl]methyl]phenyl]-3-(2-imidazo[1,2-b]pyridazin-3-ylethynyl)-4-methyl-benzamide], for which the IC50 turned out to be 0.00801 mM against CYP3A4; 345 nM on hERG (setting [4]); 138 nM on hERG (setting [5]); 552 nM at hERG (setting [6]); 345 nM at hERG (setting [7]); 0.31 nM on ABL1 (setting [8]). Besides, the IC50 is 0.297 nM on ABL1 (setting [9]), 0.285 nM at ABL1 (setting [10]), 0.3 nM at ABL1 (setting [3]) and 0.00102 mM against CYP2D6. Moreover, the SI on hERG came to 1158.

With `Cc1ccc(C(=O)Nc2ccc(CN3CCc4cn[nH]c4C3)c(Cl)c2)cc1C#Cc1cnc2cccnn12` [CD-1-051, N-[3-chloro-4-(1,4,5,7-tetrahydropyrazolo[3,4-c]pyridin-6-ylmethyl)phenyl]-3-(2-imidazo[1,2-b]pyridazin-3-ylethynyl)-4-methyl-benzamide], the IC50 at CYP3A4 worked out at 0.00557 mM; on hERG (setting [11]), 5020 nM; at hERG (setting [12]), 3840 nM; on hERG (setting [13]), 6200 nM; at hERG (setting [7]) it was 5020 nM; at ABL1 (setting [1]), 11 nM. The IC50 at ABL1 (setting [14]) came out at 9.93 nM; on ABL1 (setting [2]) it was 8.87 nM; at ABL1 (setting [3]), 9.93 nM; on CYP2D6, 0.03 mM. For the same compound, at hERG, the SI amounted to 506. Moreover, the selectivity ratio at 4 h at hERG is 506.

Take `COCCN1CCN(Cc2ccc(NC(=O)c3ccc(C)c(C#Cc4cnc5cccnn45)c3)cc2C2CC2)CC1` [CD-1-002, N-[3-cyclopropyl-4-[[4-(2-methoxyethyl)piperazin-1-yl]methyl]phenyl]-3-(2-imidazo[1,2-b]pyridazin-3-ylethynyl)-4-methyl-benzamide]: the IC50 against CYP3A4 worked out at 0.0128 mM; on hERG (setting [4]), 81 nM; on hERG (setting [5]), 62 nM; on hERG (setting [6]), 100 nM; on hERG (setting [7]), 81 nM; at ABL1 (setting [8]), 0.686 nM. Moreover, the IC50 on ABL1 (setting [9]) was 0.643 nM; on ABL1 (setting [10]), 0.601 nM; on ABL1 (setting [3]), 0.64 nM; on CYP2D6, 0.0248 mM. Moreover, at hERG, the SI was 126.
